Activity change, negative = cytotoxicity data for 24 compounds are collected here from PubChem BioAssay AID687005 (Broad Institute, 2013).

Structures are written as SMILES. Inconclusive results are not listed. The source made the active and inactive calls.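 How the source made its calls: active means Compounds that reduce signal, with fitted half-maximal dose at or under twice the top valid tested dose; inconclusive means Poor fit, or flat curve losing 30 to 70% of signal; inactive means Potency past limit, flat within 30%, or opposite direction.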

One assay is described as follows: viability loss in HEK293T cells – cell-based, ATP luminescence, cherry-pick samples, cytotoxicity control, dose response (AID 687005). Particulars: HEK293T viability, ATP luminescence (CellTiter-Glo), 48 h; at 23.5 µM (top of the series).
Consider `CC(C)NC(=O)N1CC[C@@H]2[C@@H](CO)N(C)c3ccc(-c4cccc(F)c4)cc3[C@@H]21`, for which the activity change, negative = cytotoxicity was 40.1% (inactive).

For the compound `COC(=O)C1=C(C)N(Cc2ccc(Cl)cc2)C(=S)NC1c1ccc(Br)cc1` (centres undefined), the activity change, negative = cytotoxicity is -20.4% (inactive). Same read-out and setting: with `O=C(C[C@H]1C[C@H]2c3cc(NC(=O)C4CCC4)ccc3O[C@H]2[C@@H](CO)O1)NCc1cccc(F)c1` the figure was -5.36% (inactive); with `Cc1noc(C)c1NC(=O)Nc1ccc2c(c1)C(=O)N(C)[C@H]1CC[C@H](CC(=O)N[C@H]3CCN(Cc4ccccc4)C3)O[C@H]1CO2`, -3.29% (inactive).

Still in this assay, the particulars now being: HEK293T viability, ATP luminescence (CellTiter-Glo), 48 h; at 26 µM (top of the series).
On to `CNC[C@@H]1OCCCC[C@@H](C)Oc2ccc(NC(=O)NC(C)C)cc2C(=O)N([C@@H](C)CO)C[C@H]1C`, for which the activity change, negative = cytotoxicity was 34.5% (inactive). Same read-out and setting: the same measure for `COc1ccc(-c2cnc3c(c2)C(=O)N([C@@H](C)CO)C[C@H](C)[C@@H](CN(C)S(C)(=O)=O)O3)cc1`: -11.2% (inactive); for `Cc1cc(C(=O)NC(=S)Nc2ccccc2N2CCCC2)ccc1[N+](=O)[O-]`: -6.6% (inactive); for `C[C@@H]1CN([C@@H](C)CO)C(=O)Cc2cc(NS(=O)(=O)c3ccccc3)ccc2O[C@@H]1CN(C)Cc1ccc(Cl)c(Cl)c1`: -71.5% (inactive). As to `CNC[C@@H]1Oc2c(NS(=O)(=O)c3ccc(Cl)cc3)cccc2C(=O)N([C@H](C)CO)C[C@H]1C`, the activity change, negative = cytotoxicity is 24.2% (inactive). Same read-out and setting: with `CCCNC(=O)N(C)C[C@H]1Oc2ncc(C#CC3CCCCC3)cc2C(=O)N([C@@H](C)CO)C[C@@H]1C` the figure was 9.03% (inactive). Same read-out and setting: the same measure for `COCC(=O)NC[C@@H]1N[C@@H](CO)[C@H]1c1ccc(C2=CCCC2)cc1`: 26.4% (inactive); for `C[C@@H]1CN([C@H](C)CO)C(=O)Cc2cc(NC(=O)CCCCCC(=O)Nc3ccccc3N)ccc2O[C@H]1CN(C)C(=O)Nc1ccccc1`: 0.594% (inactive); for `O=C([C@H]1[C@H](CO)[C@H]2Cn3c(cccc3=O)[C@@H]1N2Cc1cccc(Cl)c1)N1CCOCC1`: -20.6% (inactive). On the same count and under the same terms, with `CCNC(=O)Nc1ccc2c(c1)C(=O)N(C)[C@@H]1CC[C@H](CC(=O)N[C@@H](C)c3ccccc3)O[C@@H]1CO2` the figure was 66.2% (inactive). For `C/C=C/c1cnc2c(c1)C(=O)N([C@@H](C)CO)C[C@@H](C)[C@@H](CN(C)C(=O)C1CCCCC1)O2`, the activity change, negative = cytotoxicity is 10.3% (inactive). Still for that read-out and setting: with `C[C@H](CO)N1C[C@H](C)[C@@H](CN(C)Cc2ccncc2)Oc2ccc(NC(=O)CCC(F)(F)F)cc2C1=O` the figure was -2.07% (inactive); with `C[C@H](CO)N1C[C@H](C)[C@H](CN(C)C(=O)Nc2ccc3c(c2)OCO3)Oc2ncc(-c3ccc(F)cc3)cc2C1=O`, -18.8% (inactive). With `Cc1ccc(NC(=O)C2CCC(=O)N2)cc1C` (centres undefined), the activity change, negative = cytotoxicity is -5.26% (inactive). Same read-out and setting: the same measure for `CC(C)C#Cc1ccc2c(c1)O[C@H](CN(C)C(=O)Cc1ccccn1)[C@H](C)CN([C@H](C)CO)S2(=O)=O`: -25.6% (inactive); for `Cc1cccc(C)c1NC(=O)C(C)N1CCCC1` (centres undefined): -44.2% (inactive). On to `COc1ccc(CN(C)C[C@@H]2Oc3ccc(NC(=O)C4CC4)cc3C(=O)N([C@H](C)CO)C[C@H]2C)cc1`, for which the activity change, negative = cytotoxicity was 15.3% (inactive). Still for that read-out and setting: the same measure for `CCC(C)(C(=O)NC1CCCCC1)N(C(=O)C1CCC(=O)N1)c1ccccc1` (centres undefined): 0.147% (inactive); for `C#CCN(C(=O)c1ccc(OC2CCN(C(=O)CCOC)CC2)cc1)C1CCCCC1`: 8.74% (inactive); for `C[C@@H]1CCCCO[C@H](CN(C)Cc2ccncc2)[C@@H](C)CN([C@@H](C)CO)C(=O)c2cc(NC(=O)Nc3ccccc3)ccc2O1`: -7.38% (inactive).
